Key:
[1] = system: Calu-6 human lung tumour xenografts; experiment: In vivo combination study in the Calu-6 human lung cancer xenograft model (tumour growth inhibition); set-up: species or system female athymic mice (Swiss nu/nu genotype); settings: Day 35; AZD1152 150 mg/kg/day s.c. infusion 2 days; AZD6244 25 mg/kg twice daily oral 14 days; 24 h gap in sequences
Description: To establish the in vivo efficacy of combination therapy of AZD1152 and AZD6244 in Calu-6 human lung xenograft model, experiments were conducted in female athymic mice (Swiss nu/nu genotype, ≧6 weeks of age). Calu-6 human lung tumour xenografts were established in mice by injecting 1×10^6 cells (100 μl volume containing 50% Matrigel®) subcutaneously in the dorsal flank. Tumour volumes were assessed using bilateral Vernier calliper measurement at least twice weekly and calculated using the formula (length×width)×√(length×width)×(π/6), where length was taken to be the longest diameter across the tumour and width the corresponding perpendicular. Mice were randomised into 4 treatment groups (10 mice/group) when the mean tumour volume reached approximately 0.2 cm^3. Following randomisation, mice were treated with drug vehicles for AZD1152 or AZD6244, AZD1152, AZD6244 or a combination of AZD1152 plus AZD6244 according to treatment schedules described below: […]
Tumour growth inhibition was assessed by comparison of the differences in tumour volume between control and treated groups on Day 35 of the study. The effects of combination treatment sequence were assessed by comparing any effect on tumour growth in the group of animals receiving AZD1152 and AZD6244 with tumour growth in the groups where animals received single agent therapy alone. […]

[2] = Pro-drug conversion to active moiety in human plasma; format: in vitro ADME

| SMILES | growth inhibition of Calu-6 tumours compared to the vehicle-dosed group [1] | conversion of pro-drug to the active moiety AZD1152 HQPA [2] |
| --- | --- | --- |
| CCN(CCCOc1ccc2c(Nc3cc(CC(=O)Nc4cccc(F)c4)n[nH]3)ncnc2c1)CCOP(=O)(O)O [AZD1152, 2-{[3-({4-[(5-{2-[(3-fluorophenyl)amino]-2-oxoethyl}-1H-pyrazol-3-yl)amino]quinazolin-7-yl}oxy)propyl](ethyl)amino}ethyl dihydrogen phosphate] | 94.7% | rapidly and completely converted |
| Cn1cnc2c(F)c(Nc3ccc(Br)cc3Cl)c(C(=O)NOCCO)cc21 [AZD6244, 6-(4-Bromo-2-chloro-phenylamino)-7-fluoro-3-methyl-3H-benzoimidazole-5-carboxylic acid (2-hydroxy-ethoxy)-amide] | 57.8% | – |

From patent publication US20100004247A1, “COMBINATION COMPRISING A MEK INHIBITOR AND AN AURORA KINASE INHIBITOR 188” (AstraZeneca AB, priority 2007, published 2010)
